Publication PMC5120274, “Characterization of the Annonaceous acetogenin, annonacinone, a natural product inhibitor of plasminogen activator inhibitor-1” (Scientific Reports, 2016)

Columns and labels:
FeCl3-occluded venules = assay: murine model of rtPA-induced thrombolysis by intravital microscopy; assay type: in vivo, mice
Procedure: Thrombolysis was evaluated in an in vivo mouse model according to the method previously described[18] with modifications. Briefly, platelets of anesthetized mice were fluorescently labeled in vivo by injection of rhodamine 6G (3.3 mg/kg) into the retro-orbital plexus, then thrombus formation was induced by topical deposition on the mesenteric vessels of ferric chloride solution (FeCl3; 15%) in 4- to 5-week-old mice. Thrombus growth was monitored in real-time with an inverted epifluorescent microscope (x10) (Nikon Eclipse TE2000U). Within the 10 minutes after total occlusion of the vessel, the effect of annonacinone was evaluated on the efficiency of rtPA-induced thrombolysis by applying directly on the occluded vessels a thrombolytic cocktail (40 μL) composed of 40 μM rtPA (Actilyse®), 200 μM Argatroban (Arganova®) and 0.2% DMSO or 20 μM annonacinone. The incidence of the recanalization, defined as a partial or complete restoration of flow associated to a decrease of more than 50% of the initial thrombus size, and the evolution of thrombus size were determined during 1 hour.

PAI-1/tPA complex = test system: T1, PAI-1/tPA complex; assay: PAI-1/tPA complex formation on SDS-PAGE; assay type: biochemical, human; conditions: PAI-1 pre-incubated with annonacinone 30 min 37 °C
T1 construct: purchased Stago BNL (Asnières sur Seine, FR)
Procedure: PAI-1 (4 μL, 1 μM) was pre-incubated with 16 μL annonacinone (2% DMSO) for 30 min at 37 °C. Human tPA (4 μL, 0.5 μM) was then added to the mixture and incubated for 15 min at 37 °C. Reaction was stopped by addition of 4X SDS-PAGE loading buffer followed by immediate boiling. Samples were then analyzed on SDS-PAGE followed by silver staining.

PAI-1 D95A = test system: T2, PAI-1 D95A; assay: chromogenic screening assay with PAI-1 mutant D95A; assay type: biochemical; conditions: ratio of kapp relative to WT (100%)
T2 construct: made in house
Procedure: (§1) Compounds from our local collection BioCIS and from the Prestwick compound library (Prestwick chemicals, Illkirch, FR), a collection containing only FDA approved drugs (around 4000 compounds in total) were tested in a chromogenic assay measuring the inhibition rate of tPA-catalyzed spectrozyme® tPA hydrolysis in the presence of PAI-1. Compounds (20 μL, final concentration 50 μM, 1% DMSO) were dispensed in a 96 well half area Greiner plate. A mixture containing 20 μL of PAI-1 (final concentration 20 nM) and 80 μL of Spectrozyme-tPA (final concentration 400 μM) was then added, and the mixture pre-incubated for 45 minutes at 37 °C. At the end of pre-incubation time, 90 μL of the mixture were added to another 96 well half area plate containing 10 μL tPA (final concentration 10 nM). The kinetic was then measured at 405 nm for 45 min at 37 °C in an Envision microplate reader. Progress curves were fitted using the pseudo first order equation to determine the apparent rate constant k.
(§2) Mutants were constructed as previously described. […] The effect of annonacinone was measured at 50 μM for each mutant in our chromogenic screening assay. […] For each mutant, the ratio between the apparent rate constants with and without 50 μM annonacinone were calculated and then compared to that of PAI-1 WT to determine the % of annonacinone activity.

[1] = biological target: T3, PAI-1/vitronectin complex (Homo sapiens, UniProt P05121); assay: chromogenic kinetic assay in presence of vitronectin; assay type: biochemical
T3 construct: purchased Stago BNL (Asnières sur Seine, FR)
T3 sequence (P05121 24-402, one chain of several): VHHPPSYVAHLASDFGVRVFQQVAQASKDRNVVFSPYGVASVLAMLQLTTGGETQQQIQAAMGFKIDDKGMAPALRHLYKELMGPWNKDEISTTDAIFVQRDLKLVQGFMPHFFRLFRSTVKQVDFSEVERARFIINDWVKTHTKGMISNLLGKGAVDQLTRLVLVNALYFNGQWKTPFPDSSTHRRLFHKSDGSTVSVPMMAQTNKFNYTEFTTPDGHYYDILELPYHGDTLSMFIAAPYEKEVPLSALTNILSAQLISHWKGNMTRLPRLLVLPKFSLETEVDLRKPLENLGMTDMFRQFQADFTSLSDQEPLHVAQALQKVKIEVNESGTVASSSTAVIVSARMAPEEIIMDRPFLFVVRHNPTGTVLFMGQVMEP
Procedure: Compounds (20 μL) were dispensed in a 96 well half area Greiner plate. A mixture containing 20 μL of PAI-1 (final concentration 20 nM) and 40 μL of a chromogenic substrate (Spectrozyme-tPA, final concentration 400 μM) was then added, and the mixture pre-incubated for 20 minutes at 37 °C. 40 μL of vitronectin (final concentration 37.5 nM) was added and the mixture further pre-incubated for 20 min at 37 °C. At the end of pre-incubation time, 90 μL of the PAI-1/vitronectin/compound mixture were added to 10 μL of tPA (final concentration 10 nM) and the tPA catalysed substrate hydrolysis reaction was followed for 45 min at 405 nm. Progress curves were then fitted using the pseudo first order equation to determine the apparent rate constant k.

PAI-1 Y79A = test system: T4, PAI-1 Y79A; assay: chromogenic screening assay with PAI-1 mutant Y79A; assay type: biochemical
T4 construct: made in house
Procedure: as §1, §2

PAI-1 T94A = test system: T5, PAI-1 T94A; assay: chromogenic screening assay with PAI-1 mutant T94A; assay type: biochemical
T5 construct: made in house
Procedure: as §1, §2

PAI-1 [2] = test system: T6, PAI-1; assay: native PAGE analysis of PAI-1 polymerization; assay type: biochemical, human; conditions: increasing concentrations up to 50 μM, 30 min 37 °C
T6 construct: purchased Stago BNL (Asnières sur Seine, FR)
Procedure: PAI-1 (1 μM) was mixed with various concentration of annonacinone or DMSO 1% for 30 min at 37 °C. Samples were mixed with 1/3 volume of native gel sample buffer or LDS sample buffer. The former were subjected to BN-PAGE and the latter were fractioned by SDS-PAGE. Proteins band were visualized by silver staining.

PAI-1 [3] = test system: T6, PAI-1; assay: elastase mediated cleavage of PAI-1 (latency transition) on SDS-PAGE; assay type: biochemical, human; conditions: up to 50 μM
Procedure: Selective cleavage of active PAI-1 by elastase was observed on SDS-PAGE. PAI-1 (5 μL, 2 μM) was incubated with or without compounds (200 μM, 5 μL, 5% DMSO) for 15 min at 37 °C. Elastase (5 μL, 1.4 μM) was then added and further incubated for 15 min at 37 °C. Reaction was stopped by addition of 4X loading buffer containing SDS and BME followed by immediate boiling. Samples were then analyzed on SDS-PAGE followed by silver staining.

PAI-1 [4] = biological target: T7, PAI-1 (Homo sapiens, UniProt P05121); assay: chromogenic screening assay: rate of tPA inhibition by PAI-1 (spectrozyme tPA hydrolysis); assay type: biochemical; conditions: mean ± SEM
T7 construct: purchased Stago BNL (Asnières sur Seine, FR)
T7 sequence (P05121 24-402): as the sequence (P05121 24-402, one chain of several) above
Procedure: as §1

In the case of `CCCCCCCCCCCC[C@@H](O)[C@H]1CC[C@H]([C@H](O)CCCCC(=O)CCCCC[C@@H](O)CC2=C[C@H](C)OC2=O)O1` [Annonacinone], the incidence of recanalization (FeCl3-occluded venules; 20 μM annonacinone applied locally with rtPA 40 μM and Argatroban 200 μM, 1 hour, DMSO 0.2% control 28%) is reported as 71%, the “total number of vessels recanalized per group of 7 mice” value (FeCl3-occluded venules; 20 μM annonacinone with rtPA 40 μM and Argatroban 200 μM, 1 hour, DMSO control 2/7) is reported as 5/7 and the “decrease of thrombus size from initial size” value (FeCl3-occluded venules; 35 minutes of treatment, 20 μM annonacinone with rtPA and Argatroban, n = 7, DMSO 3.4 ± 8.5%) is reported as 29.7 ± 7.7%. The “effect on PAI-1/tPA covalent complex formation” value (PAI-1/tPA complex) was “concentration-dependent inhibition”, the “Annonacinone activity 50 μM (% WT)” value (PAI-1 D95A) was 163 ± 24 % WT and the “activity on PAI-1 bound to vitronectin” value ([1]; 50 μM) was “inactive”. The “kapp, annonacinone added to PAI-1 pre-incubated with vitronectin” value ([1]; 50 μM, PAI-1 pre-incubated with VN 20 min 37 °C, DMSO 1% 1.05 ± […] 10^−2) was 2.16 ± 0.17 × 10^−2 s^−1, the “kapp, annonacinone pre-incubated with PAI-1 before addition of vitronectin” value ([1]; 50 μM, pre-incubation with PAI-1 20 min 37 °C, then VN 20 min 37 °C) was 2.39 ± 0.32 × 10^−3 s^−1 and the IC50 ([1]; annonacinone pre-incubated with PAI-1 before vitronectin) was 10 ± 2 µM. The “kapp Annonacinone 50 μM” value (PAI-1 Y79A; DMSO 1% 4,0 ± 1,0 × 10^−3, n = 4) was 4,8 ± 0,9 × 10^−3 s^−1, the “Annonacinone activity 50 μM (% WT)” value (PAI-1 Y79A; ratio of kapp without/with annonacinone relative to WT (100%)) was 12 ± 2 % WT and the “kapp Annonacinone 50 μM” value (PAI-1 T94A; DMSO 1% 6,6 ± 0,9 × 10^−3, n = 4) was 2,3 ± 0,4 × 10^−3 s^−1. The “Annonacinone activity 50 μM (% WT)” value (PAI-1 T94A; ratio of kapp relative to WT (100%)) was 42 ± 6 % WT, the “effect on PAI-1 polymerization” value (PAI-1 [2]) was “did not permit to show formation of PAI-1 polymers” and the “effect on latency transition of PAI-1” value (PAI-1 [3]) was “No effects”. The “kapp Annonacinone 50 μM” value (PAI-1 [4]; PAI-1 WT (Table 2 series), DMSO 1% 6,5 ± 0,6 × 10^−3, n = 4) was 9,6 ± 1,0 × 10^−4 s^−1, the IC50 (PAI-1 [4]; chromogenic screening assay, without vitronectin, n = 3, read-out: IC50) was 9 ± 1 µM and the “kapp 50 μM (apparent rate constant of tPA inhibition by PAI-1)” value (PAI-1 [4]; compound 50 μM, 1% DMSO, PAI-1 20 nM, tPA 10 nM, DMSO 1% control 4.4 ± 0.3 × 10^-3, n = 3) was 6.4 ± 0.7 × 10^-4 s^-1.
